According to ChEMBL document CHEMBL4428134, “Discovery of AZD2716: A Novel Secreted Phospholipase A2 (sPLA2) Inhibitor for the Treatment of Coronary Artery Disease” (ACS Med Chem Lett, 2016):
In brackets after ≈: the same amount, converted by molar mass. Activity calls are given as the source filed them. The rule behind the calls is not given here.

How the values were obtained:
[1] = biological target: T1, Phospholipase A2, membrane associated (Homo sapiens, UniProt P14555); experiment: (§1) Inhibition of recombinant sPLA2-2A (unknown origin) using 1-palmitoyl-2-oleoyl-sn-glycero-3-phosphocholine as substrate preincubated for 10 mins followed by substrate addition measured after 60 mins by colorimetric method
T1 sequence (P14555 whole entry): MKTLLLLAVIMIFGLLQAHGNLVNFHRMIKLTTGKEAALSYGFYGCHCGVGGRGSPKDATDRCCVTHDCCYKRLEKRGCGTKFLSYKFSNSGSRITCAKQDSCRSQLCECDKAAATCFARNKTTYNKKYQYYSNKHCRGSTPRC

[2] = biological target: T2, Group 10 secretory phospholipase A2 (Homo sapiens, UniProt O15496); experiment: Inhibition of recombinant sPLA2-10 (unknown origin) using 1-palmitoyl-2-oleoyl-sn-glycero-3-phosphocholine as substrate preincubated for 10 mins followed by substrate addition measured after 60 mins by colorimetric method
T2 sequence (O15496 whole entry): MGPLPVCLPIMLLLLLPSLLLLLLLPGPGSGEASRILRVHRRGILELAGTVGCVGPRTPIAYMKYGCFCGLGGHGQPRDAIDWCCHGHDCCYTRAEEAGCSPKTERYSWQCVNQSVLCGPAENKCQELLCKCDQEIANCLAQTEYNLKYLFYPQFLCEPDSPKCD

[3] = biological target: T3, Secretory phospholipase A2 (Homo sapiens) (UniProt Q5R387+Q9NZK7+P14555+Q9BZM2+Q9UNK4+P39877+O15496+P04054+Q9NZ20+Q9BZM1+Q9BX93); experiment: Inhibition of sPLA2 in human plasma using 1-Hexadecanoyl-2-(1-pyrenedecanoyl)-sn-glycero-3-phosphomethanol as substrate preincubated for 10 mins followed by substrate addition measured after 90 mins by fluorescence assay; type: cell-free
[4] = Inhibition of recombinant sPLA2-5 (unknown origin) using 1-palmitoyl-2-oleoyl-sn-glycero-3-phosphocholine as substrate preincubated for 10 mins followed by substrate addition measured after 60 mins by colorimetric method; parameters: species or system Homo sapiens
[5] = Intrinsic clearance in human hepatocytes at 1 uM assessed per million cells measured up to 60 mins; type: ADME, cell-based, Hepatocyte; conditions: 1 h
[6] = biological target: T3, Secretory phospholipase A2 (Homo sapiens); experiment: Inhibition of sPLA2 in human plasma at 25 uM using 1-Hexadecanoyl-2-(1-pyrenedecanoyl)-sn-glycero-3-phosphomethanol as substrate preincubated for 10 mins followed by substrate addition measured after 90 mins by fluorescence assay; type: cell-free
[7] = biological target: Phospholipase A2, membrane associated (Homo sapiens) (UniProt P14555); experiment: as §1
[8] = Unbound fraction in human plasma; type: ADME, cell-free
Homo sapiens = organism: Homo sapiens; experiment: Inhibition of recombinant sPLA2-5 (unknown origin) at 25 uM using 1-palmitoyl-2-oleoyl-sn-glycero-3-phosphocholine as substrate preincubated for 10 mins followed by substrate addition measured after 60 mins by colorimetric method
[9] = Solubility of compound in pH 7.4 DMSO/HBSS after 24 hrs by LC-UV/MS analysis; type: physicochemical
[10] = Apparent permeability from apical to basolateral side in human Caco2 cells at pH 6.5; type: ADME, cell-based; conditions: caco-2, pH 6.5
[11] = biological target: Voltage-gated inwardly rectifying potassium channel KCNH2 (Homo sapiens, UniProt Q12809); experiment: Inhibition of human ERG expressed in CHO cells by patch clamp assay; type: cell-based
Chain of Voltage-gated inwardly rectifying potassium channel KCNH2 (Q12809 whole entry): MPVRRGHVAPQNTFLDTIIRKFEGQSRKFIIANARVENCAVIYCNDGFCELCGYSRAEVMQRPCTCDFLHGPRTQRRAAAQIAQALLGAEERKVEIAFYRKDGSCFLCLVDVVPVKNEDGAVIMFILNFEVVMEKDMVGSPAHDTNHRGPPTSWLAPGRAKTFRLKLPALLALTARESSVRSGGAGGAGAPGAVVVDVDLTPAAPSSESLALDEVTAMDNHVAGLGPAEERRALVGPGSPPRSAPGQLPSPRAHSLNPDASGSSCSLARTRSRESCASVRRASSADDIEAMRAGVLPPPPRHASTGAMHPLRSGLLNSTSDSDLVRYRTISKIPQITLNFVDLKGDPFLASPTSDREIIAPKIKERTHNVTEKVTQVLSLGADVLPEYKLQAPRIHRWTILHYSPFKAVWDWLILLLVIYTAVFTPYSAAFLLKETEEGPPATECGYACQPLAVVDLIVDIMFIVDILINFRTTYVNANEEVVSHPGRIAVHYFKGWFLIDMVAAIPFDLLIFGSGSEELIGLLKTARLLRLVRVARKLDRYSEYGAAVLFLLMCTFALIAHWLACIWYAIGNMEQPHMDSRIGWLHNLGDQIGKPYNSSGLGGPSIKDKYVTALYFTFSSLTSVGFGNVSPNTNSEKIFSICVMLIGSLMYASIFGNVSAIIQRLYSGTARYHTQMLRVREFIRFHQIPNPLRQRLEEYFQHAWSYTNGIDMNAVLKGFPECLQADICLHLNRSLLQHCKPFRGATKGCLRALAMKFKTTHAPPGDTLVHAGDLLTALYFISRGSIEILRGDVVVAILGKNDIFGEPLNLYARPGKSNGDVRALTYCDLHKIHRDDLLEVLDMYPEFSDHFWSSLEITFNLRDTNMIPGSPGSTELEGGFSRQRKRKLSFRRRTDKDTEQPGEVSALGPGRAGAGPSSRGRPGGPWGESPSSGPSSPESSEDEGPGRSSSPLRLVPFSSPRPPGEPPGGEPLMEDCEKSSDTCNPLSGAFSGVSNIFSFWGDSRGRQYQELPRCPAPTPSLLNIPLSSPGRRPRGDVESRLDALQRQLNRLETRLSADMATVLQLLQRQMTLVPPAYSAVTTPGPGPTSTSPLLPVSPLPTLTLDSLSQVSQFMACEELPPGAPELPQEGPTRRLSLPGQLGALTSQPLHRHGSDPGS

[12] = biological target: Sodium channel protein type 5 subunit alpha (Homo sapiens, UniProt Q14524); experiment: Inhibition of human Nav1.5 expressed in CHO cells by patch clamp assay; type: cell-based
[13] = Inhibition of human IKs channel expressed in CHO cells by patch clamp assay; type: cell-based
[14] = biological target: A-type voltage-gated potassium channel KCND3 (Homo sapiens, UniProt Q9UK17); experiment: Inhibition of human Kv4.3 expressed in CHO cells by patch clamp assay; type: cell-based
[15] = biological target: Voltage-dependent T-type calcium channel subunit alpha-1H (Homo sapiens, UniProt O95180); experiment: Inhibition of human Cav3.2 expressed in CHO cells by patch clamp assay; type: cell-based
Chain of Voltage-dependent T-type calcium channel subunit alpha-1H (O95180 whole entry): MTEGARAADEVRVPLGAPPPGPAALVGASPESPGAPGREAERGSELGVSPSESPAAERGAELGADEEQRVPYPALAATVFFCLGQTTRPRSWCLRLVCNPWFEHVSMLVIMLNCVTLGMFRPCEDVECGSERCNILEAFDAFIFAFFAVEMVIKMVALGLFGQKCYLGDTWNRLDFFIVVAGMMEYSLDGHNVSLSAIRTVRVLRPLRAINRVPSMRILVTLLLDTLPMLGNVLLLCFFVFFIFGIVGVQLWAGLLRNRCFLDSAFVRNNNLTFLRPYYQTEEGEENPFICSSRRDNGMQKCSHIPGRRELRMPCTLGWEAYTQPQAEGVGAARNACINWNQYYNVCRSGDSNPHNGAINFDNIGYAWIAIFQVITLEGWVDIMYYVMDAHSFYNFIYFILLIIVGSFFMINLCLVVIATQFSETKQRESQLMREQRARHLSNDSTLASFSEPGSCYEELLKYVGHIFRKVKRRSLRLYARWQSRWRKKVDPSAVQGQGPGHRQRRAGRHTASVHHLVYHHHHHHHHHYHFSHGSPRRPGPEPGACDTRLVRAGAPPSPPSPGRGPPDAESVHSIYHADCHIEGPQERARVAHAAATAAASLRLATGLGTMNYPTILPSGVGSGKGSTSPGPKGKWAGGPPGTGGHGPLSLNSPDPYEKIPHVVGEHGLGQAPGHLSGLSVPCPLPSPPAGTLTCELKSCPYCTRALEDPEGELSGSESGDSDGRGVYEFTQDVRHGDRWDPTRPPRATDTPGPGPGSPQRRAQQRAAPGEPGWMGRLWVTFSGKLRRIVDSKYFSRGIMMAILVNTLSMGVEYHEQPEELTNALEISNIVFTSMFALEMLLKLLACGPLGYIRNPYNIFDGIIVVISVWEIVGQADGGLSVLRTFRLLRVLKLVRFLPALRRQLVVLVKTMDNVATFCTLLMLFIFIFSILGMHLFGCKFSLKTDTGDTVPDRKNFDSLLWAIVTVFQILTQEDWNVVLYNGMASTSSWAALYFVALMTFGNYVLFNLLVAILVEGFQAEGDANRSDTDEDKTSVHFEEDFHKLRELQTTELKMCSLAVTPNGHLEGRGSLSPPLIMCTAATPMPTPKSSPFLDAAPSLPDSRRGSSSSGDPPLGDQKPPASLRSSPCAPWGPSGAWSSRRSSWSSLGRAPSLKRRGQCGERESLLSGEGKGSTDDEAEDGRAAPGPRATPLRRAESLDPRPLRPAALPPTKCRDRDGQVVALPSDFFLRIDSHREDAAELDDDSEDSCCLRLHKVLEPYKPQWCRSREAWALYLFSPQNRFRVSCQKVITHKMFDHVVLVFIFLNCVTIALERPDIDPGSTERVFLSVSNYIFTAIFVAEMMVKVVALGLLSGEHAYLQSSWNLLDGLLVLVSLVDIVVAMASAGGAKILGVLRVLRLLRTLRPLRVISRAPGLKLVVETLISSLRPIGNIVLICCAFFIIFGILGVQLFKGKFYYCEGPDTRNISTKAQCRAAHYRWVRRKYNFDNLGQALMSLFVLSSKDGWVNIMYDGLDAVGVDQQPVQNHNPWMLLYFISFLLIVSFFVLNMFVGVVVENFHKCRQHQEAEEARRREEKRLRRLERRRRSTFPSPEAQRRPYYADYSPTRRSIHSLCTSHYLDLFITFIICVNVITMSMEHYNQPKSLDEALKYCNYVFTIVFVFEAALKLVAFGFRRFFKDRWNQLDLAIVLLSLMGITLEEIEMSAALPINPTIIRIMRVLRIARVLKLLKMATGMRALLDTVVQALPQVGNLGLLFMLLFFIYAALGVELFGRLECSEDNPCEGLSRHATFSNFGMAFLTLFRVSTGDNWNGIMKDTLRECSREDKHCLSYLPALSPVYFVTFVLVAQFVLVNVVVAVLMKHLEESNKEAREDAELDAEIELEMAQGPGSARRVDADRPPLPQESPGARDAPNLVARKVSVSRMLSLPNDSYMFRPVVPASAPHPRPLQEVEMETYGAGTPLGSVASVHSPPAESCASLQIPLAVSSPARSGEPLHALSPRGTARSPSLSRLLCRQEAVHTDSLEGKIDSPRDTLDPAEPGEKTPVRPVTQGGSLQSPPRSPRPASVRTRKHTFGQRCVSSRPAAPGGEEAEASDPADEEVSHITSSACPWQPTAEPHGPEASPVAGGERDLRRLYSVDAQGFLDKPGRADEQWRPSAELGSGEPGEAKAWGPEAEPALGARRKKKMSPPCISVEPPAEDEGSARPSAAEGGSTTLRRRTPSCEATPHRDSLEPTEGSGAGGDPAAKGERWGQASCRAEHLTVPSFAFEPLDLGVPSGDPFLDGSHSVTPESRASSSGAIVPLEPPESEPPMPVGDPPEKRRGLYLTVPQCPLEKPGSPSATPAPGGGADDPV

[16] = biological target: Voltage-dependent L-type calcium channel subunit alpha-1C (Homo sapiens, UniProt Q13936); experiment: Inhibition of human Cav1.2 expressed in CHO cells by patch clamp assay; type: cell-based
Cytochrome P450 1A2 = Cytochrome P450 1A2 (Homo sapiens, UniProt P05177); experiment: Inhibition of human recombinant CYP1A2; type: ADME
Cytochrome P450 2C8 = Cytochrome P450 2C8 (Homo sapiens, UniProt P10632); experiment: Inhibition of human recombinant CYP2C8; type: ADME
Cytochrome P450 3A4 = Cytochrome P450 3A4 (Homo sapiens, UniProt P08684); experiment: Inhibition of human recombinant CYP3A4; type: ADME
Cytochrome P450 2C9 = Cytochrome P450 2C9 (Homo sapiens, UniProt P11712); experiment: Inhibition of human recombinant CYP2C9; type: ADME
Cytochrome P450 2C19 = Cytochrome P450 2C19 (Homo sapiens, UniProt P33261); experiment: Inhibition of human recombinant CYP2C19; type: ADME
Chain of Cytochrome P450 2C19 (P33261 whole entry): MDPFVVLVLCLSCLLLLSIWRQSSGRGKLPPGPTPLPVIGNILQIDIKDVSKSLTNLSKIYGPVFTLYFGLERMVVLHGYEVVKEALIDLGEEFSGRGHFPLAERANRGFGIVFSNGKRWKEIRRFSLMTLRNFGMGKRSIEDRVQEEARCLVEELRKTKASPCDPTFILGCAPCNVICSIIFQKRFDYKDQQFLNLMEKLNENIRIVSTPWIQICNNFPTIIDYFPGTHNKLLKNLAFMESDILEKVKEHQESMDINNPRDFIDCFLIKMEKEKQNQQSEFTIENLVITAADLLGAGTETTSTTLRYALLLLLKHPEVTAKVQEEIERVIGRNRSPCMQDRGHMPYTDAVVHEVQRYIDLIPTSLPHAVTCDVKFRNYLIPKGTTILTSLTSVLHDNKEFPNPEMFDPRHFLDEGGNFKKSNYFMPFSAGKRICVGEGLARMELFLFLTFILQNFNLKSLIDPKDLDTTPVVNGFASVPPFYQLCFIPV

Cytochrome P450 2D6 = Cytochrome P450 2D6 (Homo sapiens, UniProt P10635); experiment: Inhibition of human recombinant CYP2D6; type: ADME
[17] = Volume of distribution at steady state in Sprague-Dawley rat at 2 umol/kg, iv or 4 umol/kg, po; type: ADME, organism-based; conditions: in vivo
[18] = Oral bioavailability in Sprague-Dawley rat at 4 umol/kg; type: ADME, organism-based; conditions: in vivo
[19] = Volume of distribution at steady state in beagle dog at 1 umol/kg, iv or 2 umol/kg, po; type: ADME, organism-based, Canis lupus familiaris; conditions: in vivo
[20] = Oral bioavailability in beagle dog at 2 umol/kg; type: ADME, organism-based, Canis lupus familiaris; conditions: in vivo
[21] = biological target: Solute carrier organic anion transporter family member 1B1 (Homo sapiens, UniProt Q9Y6L6); experiment: Inhibition of human OATP1B1 expressed in HEK293 cells assessed as reduction in […] uptake at 25 uM; type: cell-based; conditions: hek293, 25 µM
Chain of Solute carrier organic anion transporter family member 1B1 (Q9Y6L6 whole entry): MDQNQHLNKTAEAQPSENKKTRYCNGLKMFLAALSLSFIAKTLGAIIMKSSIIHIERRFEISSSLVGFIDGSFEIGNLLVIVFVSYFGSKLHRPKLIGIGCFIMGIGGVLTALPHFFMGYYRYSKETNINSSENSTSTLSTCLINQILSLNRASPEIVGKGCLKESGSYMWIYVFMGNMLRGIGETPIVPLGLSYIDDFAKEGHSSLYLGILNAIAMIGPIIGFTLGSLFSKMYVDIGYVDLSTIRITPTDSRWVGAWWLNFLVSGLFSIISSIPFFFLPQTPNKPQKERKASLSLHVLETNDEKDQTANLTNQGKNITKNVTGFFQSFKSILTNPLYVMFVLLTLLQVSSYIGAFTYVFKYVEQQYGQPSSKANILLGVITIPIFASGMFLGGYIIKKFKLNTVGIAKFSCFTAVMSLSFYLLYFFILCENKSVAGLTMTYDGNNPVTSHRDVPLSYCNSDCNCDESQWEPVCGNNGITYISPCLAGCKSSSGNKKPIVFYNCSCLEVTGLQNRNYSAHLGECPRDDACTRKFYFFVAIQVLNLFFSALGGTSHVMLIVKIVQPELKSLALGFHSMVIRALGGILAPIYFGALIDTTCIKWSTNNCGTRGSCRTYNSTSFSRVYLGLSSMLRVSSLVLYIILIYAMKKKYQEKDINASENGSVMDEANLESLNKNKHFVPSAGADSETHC

[22] = AUC (0 to infinity) in mouse at 50 umol/kg, po; type: ADME; parameters: dose 50 umol/kg, route oral, time infinity; conditions: in vivo
[23] = Volume of distribution at steady state in mouse at 10 umol/kg, iv or 50 umol/kg, po; type: ADME, organism-based; conditions: in vivo
[24] = Oral bioavailability in mouse at 50 umol/kg; type: ADME, organism-based; conditions: in vivo
[25] = AUC (0 to infinity) in Sprague-Dawley rat at 8 umol/kg, po; type: ADME; parameters: dose 8 umol/kg, time infinity, route oral; conditions: in vivo
[26] = Volume of distribution at steady state in Sprague-Dawley rat at 2 umol/kg, iv or 8 umol/kg, po; type: ADME, organism-based; conditions: in vivo
[27] = Oral bioavailability in Sprague-Dawley rat at 8 umol/kg; type: ADME, organism-based; conditions: in vivo
[28] = AUC (0 to infinity) in beagle dog at 3 umol/kg, po; type: ADME, Canis lupus familiaris; parameters: dose 3 umol/kg, route oral, time infinity; conditions: in vivo
[29] = Volume of distribution at steady state in beagle dog at 1 umol/kg, iv or 3 umol/kg, po; type: ADME, organism-based, Canis lupus familiaris; conditions: in vivo
[30] = Oral bioavailability in beagle dog at 3 umol/kg; type: ADME, organism-based, Canis lupus familiaris; conditions: in vivo
[31] = AUC (0 to infinity) in cynomolgus monkey at 15.8 umol/kg, po; type: ADME, Macaca fascicularis; parameters: dose 15.8 umol/kg, route oral, time infinity; conditions: in vivo
[32] = Volume of distribution at steady state in cynomolgus monkey at 5 umol/kg, iv or 15.8 umol/kg, po; type: ADME, organism-based, Macaca fascicularis; conditions: in vivo
[33] = Oral bioavailability in cynomolgus monkey at 15.8 umol/kg; type: ADME, organism-based, Macaca fascicularis; conditions: in vivo
[34] = biological target: Secretory phospholipase A2; experiment: Inhibition of sPLA2 in human HepG2 cells; type: cell-based
[35] = biological target: Secretory phospholipase A2; experiment: Inhibition of sPLA2 in atherosclerotic plaque from coronary artery disease patient; type: protein assay, Homo sapiens
Macaca fascicularis = organism: Macaca fascicularis; experiment: Inhibition of sPLA2 in cynomolgus monkey plasma using 1-Hexadecanoyl-2-(1-pyrenedecanoyl)-sn-glycero-3-phosphomethanol as substrate preincubated for 10 mins followed by substrate addition measured after 90 mins by fluorescence assay; type: cell-free
Cynomolgus monkey = experiment: In vivo inhibition of sPLA2 in po dosed cynomolgus monkey plasma measured up to 24 hrs; type: functional, Macaca fascicularis
HepG2 = experiment: Inhibition of sPLA2-2A production in human HepG2 cells; type: functional, cell-based

In the case of `NC(=O)c1ccc(Cc2ccccc2)cc1-c1cccc(OCC(=O)O)c1`, the IC50 [1] is reported as 190 nM and the IC50 [2] is reported as 3700 nM.

Work on `NC(=O)c1ccc(Cc2ccccc2)cc1-c1cccc(CC(=O)O)c1` yielded an IC50 [1] of 70 nM, a fIC50 [3] of 0.04 µM and an IC50 [4] of 1400 nM. The IC50 [2] was 1100 nM.

In the case of `C[C@@H](Cc1cccc(-c2cc(Cc3ccccc3)ccc2C(N)=O)c1)C(=O)O`, the IC50 [1] is reported as 38 nM, the IC50 [4] is reported as 1200 nM and the IC50 [2] is reported as 3800 nM. It also gave a CLint [5] of 9.3 µL/min/1e6 cells.

In the case of `NC(=O)c1ccc(Cc2ccccc2)cc1-c1cccc(C(=O)O)c1`, the IC50 [1] is reported as 910 nM, the IC50 [4] is reported as over 10000 nM and the inhibition [6] is reported as “inactive”.

With `NC(=O)c1ccc(Cc2ccccc2)cc1` the inhibition [7] was “Dose-dependent effect”, the IC50 [1] was 24000 nM and the fIC50 [3] was 0.9 µM. For the same molecule, the Fu [8] was 1.8%, the IC50 [2] was 2200 nM and the inhibition (Homo sapiens) was “inactive”.

`CCC(Cc1cccc(-c2cc(Cc3ccccc3)ccc2C(N)=O)c1)C(=O)O` (centres undefined) showed an IC50 [1] of 21 nM, a fIC50 [3] of 0.0008 µM and an IC50 [4] of 70 nM. The IC50 [2] was 430 nM and the CLint [5] was 25 µL/min/1e6 cells.

Work on `CCc1c(C(=O)C(N)=O)c2c(OCC(=O)O)cccc2n1Cc1ccccc1` [VARESPLADIB] yielded a fIC50 [3] of 0.008 µM, a Fu [8] of 12.5% and an IC50 [4] of 120 nM.

`NC(=O)c1ccc(Cc2ccccc2)cc1-c1cccc(CCC(=O)O)c1` gave an IC50 [1] of 12 nM, a fIC50 [3] of 0.007 µM and an IC50 [4] of 360 nM. For the same molecule, the IC50 [2] was 280 nM, the solubility kinetic at 24 h [9] was 98 µM (≈ 35.2 µg/mL) and the Papp [10] was 40.1 ×10⁻⁶ cm/s. For the same molecule, the CLint [5] was 5.2 µL/min/1e6 cells, the IC50 [11] was over 33.3 µM and the IC50 [12] was over 33.3 µM. It also gave an IC50 [13] of over 33.3 µM, an IC50 [14] of over 33.3 µM and an IC50 [15] of over 33.3 µM. For the same molecule, the IC50 [16] was over 33.3 µM, the IC50 (Cytochrome P450 1A2) was over 20 µM and the IC50 (Cytochrome P450 2C8) was over 20 µM. For the same molecule, the IC50 (Cytochrome P450 3A4) was over 20 µM, the IC50 (Cytochrome P450 2C9) was over 20 µM and the IC50 (Cytochrome P450 2C19) was over 20 µM. For the same molecule, the IC50 (Cytochrome P450 2D6) was over 20 µM, the Vdss [17] was 0.22 L/kg and the F [18] was 81%. The Vdss [19] was 0.26 L/kg and the F [20] was 82%.

Molecule `C[C@H](Cc1cccc(-c2cc(Cc3ccccc3)ccc2C(N)=O)c1)C(=O)O` has an IC50 [1] of 10 nM, a fIC50 [3] of 0.0001 µM and an IC50 [4] of 40 nM. For the same molecule, the IC50 [2] was 400 nM, the CLint [5] was 12 µL/min/1e6 cells and the “inhibition (INH)” value [21] was “Not Active”. For the same molecule, the AUC(0-inf) [22] was 69.7 µM·h, the Vdss [23] was 2.8 L/kg and the F [24] was 76.3%. For the same molecule, the AUC(0-inf) [25] was 70 µM·h, the Vdss [26] was 0.21 L/kg and the F [27] was 84%. The AUC(0-inf) [28] was 284 µM·h, the Vdss [29] was 0.15 L/kg and the F [30] was 91%. The AUC(0-inf) [31] was 71.3 µM·h, the Vdss [32] was 1.1 L/kg and the F [33] was 81%. The IC50 [34] was under 14 nM, the IC50 [35] was 56 nM and the fIC50 (Macaca fascicularis) was 1 nM. The fIC80 (Cynomolgus monkey) was 13 nM, the inhibition (Cynomolgus monkey; Macaca fascicularis) was “Dose-dependent effect” and the IC50 (HepG2) was 176 nM.

With `CC(Cc1cccc(-c2cc(Cc3ccccc3)ccc2C(N)=O)c1)C(=O)O` (centres undefined) the IC50 [1] was 11 nM, the fIC50 [3] was 0.001 µM and the IC50 [4] was 70 nM. The IC50 [2] was 750 nM, the CLint [5] was 9.6 µL/min/1e6 cells and the “inhibition (INH)” value [21] was “Not Active”.

Molecule `NC(=O)c1ccc(Cc2ccccc2)cc1-c1cccc(CCCC(=O)O)c1` has an IC50 [1] of 110 nM, a fIC50 [3] of 0.03 µM and an IC50 [4] of 4100 nM. For the same molecule, the IC50 [2] was 5400 nM.
